Usually MIC stands for the least concentration at which growth counts as inhibited. High values mean a less susceptible organism, low ones a more susceptible organism.

Among the data in DBAASP are MIC values, retold here.

Holding throughout (assay): ≥ marks a high value that may be exact or a test limit, other limits are often not marked, values filed in µg/mL are converted to µM
Experiment [1] concerns Candida albicans F7-39/IDE99.
Experiment [2] relates to Pseudomonas aeruginosa.
Experiment [3] concerns Bacillus subtilis 168.
The test system of experiment [4] is Micrococcus luteus CCM 144.
Experiment [5] deals with Escherichia coli B.
In experiment [6] the test system is Staphylococcus aureus.
The subject of experiment [7] is Escherichia coli ATCC 25922.
The subject of experiment [8] is Salmonella enterica subsp. enterica serovar Pullorum ATCC 7913.
The subject of experiment [9] is Staphylococcus aureus ATCC 29213.
For experiment [10], the system named is Streptococcus thermophilus YM-C.
In experiment [11] the test system is Pseudomonas aeruginosa ATCC 27853.
Experiment [12] deals with Escherichia coli UB1005.
Experiment [13] relates to Escherichia coli 078.
Experiment [14] concerns Staphylococcus aureus ATCC 25923.
Experiment [15] deals with Streptococcus agalactiae CICC 10465.
The subject of experiment [16] is Salmonella enterica subsp. enterica serovar Typhimurium ATCC 14028.
In experiment [17] the test system is Lacticaseibacillus rhamnosus 7469.
In experiment [18] the test system is Streptococcus agalactiae.
Experiment [19] concerns Salmonella enterica subsp. enterica serovar Typhimurium C77-31.
The test system of experiment [20] is Staphylococcus epidermidis ATCC 12228.
Experiment [21] concerns Corynebacterium xerosis C875.
For experiment [22], the system named is Escherichia coli DC2.
For experiment [23], the system named is Staphylococcus epidermidis C621.

Values after ≈ are worked out from the molar mass of the structure shown.

For the compound `CC[C@H](C)[C@H](NC(=O)[C@H](CC(C)C)NC(=O)[C@H](CCCCN)NC(=O)[C@@H](NC(=O)[C@@H](NC(=O)[C@H](Cc1cnc[nH]1)NC(=O)[C@@H]1CCCN1C(=O)[C@H](CC(C)C)NC(=O)[C@@H](NC(=O)[C@H](CCCCN)NC(=O)[C@H](C)NC(=O)[C@H](CC(C)C)NC(=O)[C@H](CC(C)C)NC(=O)[C@H](CCCCN)NC(=O)[C@H](C)NC(=O)[C@H](CCSC)NC(=O)CN)C(C)C)C(C)C)C(C)C)C(=O)N[C@@H](CCCCN)C(=O)O` [GMAKLLAKVLPHVVKLIK], the MIC in experiment [1] is 13.1 µM (≈ 25.7 µg/mL); in [2], 17.5 µM (≈ 34.3 µg/mL); in [3] it was 1.3 µM (≈ 2.55 µg/mL); in experiment [4] it was 0.8 µM (≈ 1.57 µg/mL); in [5] it was 1.5 µM (≈ 2.94 µg/mL); in [6], 2.7 µM (≈ 5.29 µg/mL).

In the case of `NCCCC[C@H](NC(=O)[C@H](CCCCN)NC(=O)[C@H](CCCN=C(N)N)NC(=O)[C@H](CCC(=O)O)NC(=O)[C@@H](N)CCCCN)C(=O)N[C@@H](CCCN=C(N)N)C(=O)N[C@@H](CCCN=C(N)N)C(=O)N[C@@H](CCCN=C(N)N)C(N)=O` [KERKKRRR], the MIC in experiment [7] was over 64 µM; in experiment [8], at least 64 µM; in experiment [9], over 64 µM; in [10], at least 64 µM; in [11] it was over 64 µM; in experiment [12], at least 64 µM. Further, the minimal inhibitory concentration (MIC) is at least 64 µM in experiment [13]; over 64 µM in [14]; at least 64 µM in experiment [15]; over 64 µM in [16]; at least 64 µM in experiment [17]; at least 64 µM in experiment [18]. In addition, the MIC is at least 64 µM in experiment [19] and over 64 µM in experiment [20].

As to `CC[C@H](C)[C@H](NC(=O)[C@H](C)NC(=O)[C@H](C)NC(=O)[C@H](C)NC(=O)[C@H](CCCCN)NC(=O)[C@@H](N)CCCCN)C(=O)N[C@@H](C)C(=O)N[C@@H](C)C(=O)N[C@@H](C)C(=O)N[C@@H](C)C(=O)N[C@@H](C)C(=O)N[C@H](C(=O)N[C@@H](C)C(=O)N[C@@H](C)C(=O)N[C@@H](Cc1c[nH]c2ccccc12)C(=O)N[C@@H](C)C(=O)N[C@@H](C)C(=O)N[C@H](C(=O)N[C@@H](C)C(=O)N[C@@H](C)C(=O)N[C@@H](C)C(=O)N[C@@H](CCCCN)C(=O)N[C@@H](CCCCN)C(=O)N[C@@H](CCCCN)C(=O)N[C@@H](CCCCN)C(N)=O)[C@@H](C)CC)[C@@H](C)CC` [KKAAAIAAAAAIAAWAAIAAAKKKK], the MIC in experiment [12] is at least 32 µM; in experiment [21], 0.25 µM (≈ 0.594 µg/mL); in [22], 16 µM (≈ 38 µg/mL); in experiment [23] it was 4 µM (≈ 9.51 µg/mL).

For `CC[C@H](C)[C@H](NC(=O)[C@H](CCCCN)NC(=O)CNC(=O)[C@H](Cc1c[nH]c2ccccc12)NC(=O)[C@H](CC(N)=O)NC(=O)[C@@H](N)CC(C)C)C(=O)N[C@@H](CC(C)C)C(=O)N[C@@H](CCCCN)C(=O)N[C@@H](Cc1cnc[nH]1)C(=O)N[C@H](C(=O)N[C@H](C(=O)N[C@@H](CCCCN)C(N)=O)[C@@H](C)CC)[C@@H](C)CC` [LNWGKILKHIIK], the MIC in [1] amounted to 7.3 µM (≈ 10.7 µg/mL); in experiment [2], 20.8 µM (≈ 30.4 µg/mL); in experiment [3] it was 1.7 µM (≈ 2.49 µg/mL); in experiment [4] it was 2.2 µM (≈ 3.22 µg/mL); in [5], 4 µM (≈ 5.85 µg/mL); in experiment [6], 8.7 µM (≈ 12.7 µg/mL).
